This is an account of results in US20230071763A1, “AURISTATIN-RELATED COMPOUNDS, CONJUGATED AURISTATIN-RELATED COMPOUNDS, AND METHODS OF USE THEREOF” (CYTOMX THERAPEUTICS, INC., priority 2020, published 2023).

One data set deals with T1, human CES-1C (Homo sapiens, UniProt P23141).
T1 sequence (P23141 18-566 isoform P23141-3 limits assumed): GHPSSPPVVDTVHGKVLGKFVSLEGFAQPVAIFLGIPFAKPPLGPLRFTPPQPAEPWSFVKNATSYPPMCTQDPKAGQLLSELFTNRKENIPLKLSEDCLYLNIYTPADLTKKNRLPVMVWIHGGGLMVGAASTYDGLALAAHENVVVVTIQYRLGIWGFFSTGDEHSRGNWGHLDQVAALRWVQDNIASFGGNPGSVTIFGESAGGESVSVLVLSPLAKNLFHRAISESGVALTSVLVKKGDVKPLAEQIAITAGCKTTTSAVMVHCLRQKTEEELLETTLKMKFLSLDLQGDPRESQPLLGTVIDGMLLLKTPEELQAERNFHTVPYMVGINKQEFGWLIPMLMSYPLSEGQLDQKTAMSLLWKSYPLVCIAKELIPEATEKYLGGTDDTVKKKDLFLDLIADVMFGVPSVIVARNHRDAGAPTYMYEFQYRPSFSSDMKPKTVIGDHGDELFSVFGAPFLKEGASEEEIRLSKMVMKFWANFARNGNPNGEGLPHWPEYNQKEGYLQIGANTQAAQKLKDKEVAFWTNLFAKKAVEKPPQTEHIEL
Briefly: Stability to carboxylesterase, human CES-1C. Type of data set: in vitro ADME. Particulars: 37° C., in 48 hrs. The protocol: (§1) In a further exemplary study, the stability of the substrates were determined in the presence of […] different carboxylesterases (human or mouse CES-1 and CES-1C). In this study, the enzymes were activated prior to substrate introduction and then incubated with the substrate at 37° C. over a 48 h time period.

A further data set deals with T2, mouse CES-1C (Mus musculus, UniProt P23953).
T2 sequence (P23953 19-554): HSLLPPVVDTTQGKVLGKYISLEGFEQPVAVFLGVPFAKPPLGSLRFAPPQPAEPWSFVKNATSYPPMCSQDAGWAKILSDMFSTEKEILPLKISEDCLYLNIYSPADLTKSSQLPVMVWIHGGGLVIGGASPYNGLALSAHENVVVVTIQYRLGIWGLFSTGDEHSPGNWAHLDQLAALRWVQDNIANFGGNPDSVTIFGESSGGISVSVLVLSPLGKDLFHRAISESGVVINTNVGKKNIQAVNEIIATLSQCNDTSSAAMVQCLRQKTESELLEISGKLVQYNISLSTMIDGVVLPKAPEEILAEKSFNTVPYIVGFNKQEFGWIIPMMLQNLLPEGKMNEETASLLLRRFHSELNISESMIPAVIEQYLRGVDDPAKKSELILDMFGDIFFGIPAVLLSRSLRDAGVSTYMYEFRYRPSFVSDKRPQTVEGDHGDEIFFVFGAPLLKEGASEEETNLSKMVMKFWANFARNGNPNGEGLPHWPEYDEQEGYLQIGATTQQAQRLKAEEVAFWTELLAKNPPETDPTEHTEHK
Briefly: Stability to carboxylesterase, mouse CES-1C. In kind it is in vitro ADME. The settings on record: 37° C., in 48 hrs. The procedure: as §1

Another data set addresses tubulin. Briefly: Binding to tubulin.
For the next data set, the system named is PC3. As to the kind of experiment: In vitro cytotoxicity (Presto Blue), PC3. In kind it is cell-based. The settings on record: 5 days treatment, percent survival. The procedure:
(§2) In this assay, the test cells were plated and grown to an appropriate cell density (e.g., 1500 cells/well (50 μL per well) for SW780 cells). The cells were treated with the drug (MMATH or MMAE (monomethylauristatin E)) at concentrations ranging from 10 μM to 10^−4 nM in triplicate for 5 days. On the day 6 endpoint, the cells were incubated with 20 μL of Presto Blue @ 37 C for 2 hr and the signal was read on a Biotek synergy H4 plate reader. After media background was subtracted, the percent survival was calculated and plotted to determine the EC50, as shown in the exemplary results of Table 1.

A further data set has as its system SW780 cells. As to the kind of experiment: In vitro cytotoxicity (Presto Blue), SW780. Particulars: 5 days treatment, percent survival. In kind it is cell-based. The procedure: as §2
The subject of another data set is SKOV3. Briefly: In vitro cytotoxicity (Presto Blue), SKOV3. In kind it is cell-based. The settings on record: 5 days treatment, percent survival. The protocol:
as §2

A further data set deals with HCC1954. Briefly: In vitro cytotoxicity (Presto Blue), HCC1954. Type of data set: cell-based. The settings on record: 5 days treatment, percent survival. The procedure: as §2

Turning to `CC[C@H](C)C([C@@H](CC(=O)N1CCC[C@H]1[C@H](OC)[C@@H](C)C(=O)N[C@H](C)[C@@H](O)c1ccccc1)OC)N(C)C(=O)[C@@H](NC(=O)[C@@H](NC)C(C)C)C(C)C` (some centres unmarked) [Cys-vc-MMAE], the “cleavage by human CES-1C” value at human CES-1C is on record as “completely cleaved”. Further, the “cleavage by mouse CES-1C” value at mouse CES-1C was “completely cleaved”.
`CC[C@H](C)[C@@H]([C@@H](CC(=O)N1CCC[C@H]1[C@H](OC)[C@@H](C)C(=O)N[C@H](C)[C@@H](O)c1ccccc1)OC)N(C)C(=O)[C@@H](NC(=O)[C@@H](NC)C(C)C)C(C)C` [MMAE, monomethylauristatin E] registered a dissociation constant Kd at tubulin of 69.9 nM. The EC50 with PC3 worked out at 0.24 nM; with SW780 cells (first SW780 column), 0.31 nM; in the data set with SW780 cells (second SW780 column), 0.22 nM; in the data set on SKOV3, 0.19 nM; with HCC1954, 0.03 nM.
In turn, `CCC(C)C(C(CC(=O)N1CCCC1C(OC)C(C)C(=O)NC(CO)Cc1cccs1)OC)N(C)C(=O)C(NC(=O)C(NC)C(C)C)C(C)C` (centres unmarked) [MMATH] returned a Kd on tubulin of 204 nM. The EC50 in the data set on PC3 (Homo sapiens, PC-3, 120 h) was determined as 0.24 nM; in the data set on SW780 cells (Homo sapiens, SW780, 120 h, first SW780 column), 0.38 nM; in the data set with SW780 cells (Homo sapiens, SW780, 120 h, second SW780 column), 0.26 nM; in the data set on SKOV3 (Homo sapiens, SK-OV-3, 120 h), 0.2 nM; in the data set with HCC1954 (Homo sapiens, HCC1954, 120 h) it was 0.03 nM.
